Test results published in patent US20210059927A1, “COSMETIC COMPOSITION COMPRISING DENDROBIUM CANDIDUM FLOWER EXTRACT” (LG HOUSEHOLD & HEALTH CARE LTD., priority 2017, published 2021).

Key:
B-16 mouse melanoma cell = experiment: Inhibitory effect of melanin production at cellular level; type: cell-based; details: positive control 100 ppm, 3 days, relative to negative control; n=4
Description: In order to confirm the brightening effect through the inhibition of melanin production of each extract prepared in Preparation Examples 1 to 9, the samples obtained in Preparation Examples 1 to 9 were added to a culture medium of mouse melanoma cells (B-16 mouse melanoma cell) to measure the total amount of melanin (Lotan R. et al., Cancer Res. 40:3345-3350, 1980). Prior to measuring the total amount of melanin, brightening evaluation was performed at non-toxic concentrations by first evaluating the toxicity of mouse melanoma cells. […]
Thereafter, the cells were trypsin-treated, detached from the culture vessel, and centrifuged, and melanin was extracted. The detached cells were added with 1 mL of sodium hydroxide solution (1N concentration), boiled for 10 minutes to dissolve the melanin, and the absorbance was measured at 405 nm using a spectrophotometer to measure the amount of melanin produced.
The amount of melanin was measured by the absorbance of the unit cell count (1×10^6 cells), and the melanin production inhibition rate (%) was calculated as the total amount of melanin relative to the negative control group, and the results are shown in Table 2 below.

RAW264.7 cell line = experiment: Inhibitory effect of nitric oxide (NO) production, GRIESS method, LPS-stimulated; type: cell-based, mouse; details: positive control 20 ppm, LPS 1 ppm, 24 hours, relative to LPS-only group; n=4
Description: In order to confirm the anti-inflammatory effect and skin trouble improvement effect of each extract prepared in Preparation Examples 1 to 9, NO production inhibitory effect was measured by the GRIESS method using RAW264.7 cell line (ATCC number: CRL-2278).
Specifically, RAW264.7 cells, which are macrophages of mice, were subcultured several times, and cultured for 24 hours after being placed in a 24-well plate such that 3×10^5 cells were placed in one well. After exchanging with a cell medium containing the sample at a final concentration of 0.1%, an untreated medium was used as a negative group and for a positive control group, 20 ppm of L-NG-monomethylarginine (L-NMMA) was used, which is a NO-production inhibitor. 1 ppm of lipopolysaccharide was treated as a stimulus source and cultured for 24 hours. The supernatant was transferred to a 96-well plate by 100 μL, and the GRIESS solution was added by 100 μL to react at room temperature for 10 minutes, and the NO inhibitory effect was determined by measuring the absorbance at 540 nm.
The NO production inhibitory rate (%) was calculated as a relative ratio of the amount of reduced NO compared to the LPS-only treatment group, and the results are shown in Table 3 below.

Aquaporin 3 = experiment: Moisturizing gene expression by qRT-PCR in HaCaT: AQP3; type: cell-based, human; details: mRNA, positive control 10 ng/ml, negative control = 1.00, n=4
Description: In order to confirm the skin moisturizing effect of each extract prepared in Preparation Examples 1 to 9, gene expression related to moisturizing was measured using the cells cultured as below.
Human keratinocytes (HaCaT) were in a 6-hole cell culture plate 2×10^5 each, and then cultured using Dulbecco's Modified Eagle's medium (DMEM, Gibco, Co.) including fetal bovine serum (FBS) and antibiotics for 24 hours.
After culturing the cells, it was replaced with DMEM, High Glucose, no Glutamine, no calcium (Gibco, USA), and then the samples obtained in Preparation Examples 1 to 9 were treated at a concentration of 0.1% for 24 hours. […]
2.5 μg of RNA was quantified and reverse transcription was performed using cDNA synthesis kit (PhileKorea, Korea). […] Quantitative real time PCR (qRT-). […]
The experimental results obtained by qRT-PCT were shown by calculating with the ΔΔCT method (Livak K J, Schmittgen T D: Analysis of relative gene expression data using real-time quantitative PCR and the 2(-Delta Delta C(T)) Method, Methods, 25, 402-408(2001)) based on housekeeping gene and glyceraldehyde-3-phosphate dehydrogenase (GAPDH). To compare effects, moisturizing gene expression was measured in the same manner for a negative control group without treating samples and a positive control group treated with EGF 10 ng/ml and Ca^2+3 mM, respectively. […]

[1] = tested on: type 1 collagen in human-derived fibroblasts; experiment: Synthesis promotion effect of type 1 collagen in human-derived fibroblasts (PICP EIA kit); type: cell-based; details: positive control 10 ng/ml, relative to negative control; n=4
Description: In order to confirm the wrinkle improvement effect through promoting the synthesis of type 1 collagen of each extract prepared in Preparation Examples 1 to 9, collagen synthesis rate was measured by adding the samples obtained in Preparation Examples 1 to 9 to the culture solution of human-derived fibroblasts. The synthesis of collagen was quantified using a PICP EIA kit (Procollagen Type I C-Peptide Enzyme ImmunoAssay KIT). After adding the sample to a culture medium of fibroblasts (DMEM medium) at a final concentration of 0.1% and culturing for 48 hours, cultures were taken and the degree of collagen synthesis of type 1 collagen at each concentration was measured at 450 nm using a spectrophotometer with PICP EIA kit.
For comparison of the effects, the degree of collagen synthesis was measured in the same manner with respect to a culture medium (negative control group) of untreated fibroblasts and the sample (positive control) added with TGF-β to a final concentration of 10 ng/mL.
Collagen synthesis rate (%) was calculated as the ratio of the collagen production amount relative to the negative control, and the results are shown in Table 1 below.

OC[C@H]1O[C@@H](Oc2ccc(O)cc2)[C@H](O)[C@@H](O)[C@@H]1O [Albutin]
Melanin production inhibition rate (%) (B-16 mouse melanoma cell): 33.13%

CNC(=N)NCCC[C@H](N)C(=O)O [L-NMMA, L-NG-monomethylarginine]
NO production inhibitory rate (%) (RAW264.7 cell line): 51.85%

EGF: Positive control for moisturizing gene expression, 10 ng/ml
Aquaporin 3 (fold) (Aquaporin 3): 3.27 fold

TGF-β
Collagen synthesis rate (%) [1]: 15.21%
